This is an account of results in patent US5719130A, “Anthracycline derivative having a trifluoromethylated sugar” (Zaidan Hojin Biseibutsu Kagaku Kenkyu Kai, priority 1994, dated 1998).

Converted amounts (≈) assume the structure as drawn.

For one data set, the system named is P388 cells. Put plainly: In vitro inhibition of growth of P388 cells, 72 hours (Test Example 3). As to conditions: Mus musculus, P388, 72 h. The class given is cell-based, mouse. The method, then:
(§1) Furthermore, in order to estimate the antitumor activities of Compound (a) and Compound (b) of this invention represented by the general formula (I), as well as the adriamycinone derivative represented by the formula (II) (namely, Compound (c) of this invention), some "in vitro" tests for inhibiting proliferation of cancer cells were conducted as shown below.
(§2) The above-mentioned Compound (a), Compound (b) or Compound (c) according to this invention were added at varying concentrations to mouse leukemia, P388 cells or adriamycin-resistant P388 cells (P388/ADR) which had been incubated in test tubes containing an appropriate culture medium. The incubation of the tumor cells were then continued for 72 hours from the addition of the test compound, and determination was made to evaluate such concentrations of the test compound which could inhibit the growth of the leukemia cells by 50% (namely, IC50' ng/ml). FT-DM, FT-ADM and adriamycin (as the hydrochloride) were used as comparative compounds and were tested in the same manner as above.

Data set [1] deals with Leukemia L-1210 cells. Description: Antitumor activity against leukemia L-1210 in CDF1 mice, 30-day observation (Test Example 2). The class given is in vivo, mouse. Conditions: 9 days, 30 d observation, '>' = at least one of four mice survived 30 days. The procedure: Since an elapsed time of 24 hours from the transplantation of the leukemia cells, Compound (c) of this invention was administered intraperitoneally to the mice under test for 9 consecutive days once per day. […] While, mice of the control group (the untreated group) were administered with only physiological saline after the transplantation of the L-1210 cells. During the observation period, the numbers of the surviving mice in the treated group and the control group were counted, and the mean survival days of mice in the treated group and in the control group were then calculated. From the mean survival day (C) of the untreated mice of the control group and the mean survival day (T) of the treated mice of the treated group, there were evaluated percentages (%) of the increase in the life-span of the treated mice as T/C %. For a comparison purpose, adriamycin was also tested in the same manner as above.

In data set [2] the test system is adriamycin-resistant P388 cells (P388/ADR). Put plainly: In vitro inhibition of growth of adriamycin-resistant P388 cells, 72 hours (Test Example 3). Format: cell-based, mouse. As to conditions: Mus musculus; P388/ADR, 72 hours. The method, then:
as §1, §2

Data set [3] has as its system Leukemia L-1210 cells. Put plainly: Antitumor activity against leukemia L-1210 in CDF1 mice, 60-day observation (Test Example 1). Conditions: for % Increase in life-span (T/C, %): 9 days, 60 d observation, '>' = at least one of four mice survived 60 days. The class given is in vivo, mouse. The procedure: Thus, to evaluate the antitumor effects of the new compounds of this invention against experimental tumors in animals, CDF1 mice (four mice per group) were intraperitoneally transplanted with cells of Leukemia L-1210 at an amount of 1×10^5 cells/mouse. Since an elapsed time of 24 hours from the transplantation of the leukemia cells, a test compound according to this invention was administered intraperitoneally to the mice under test for 9 consecutive days once per day. […] While, mice of the control group (the untreated group) were administered with only physiological saline after the transplantation of the L-1210 cells. During the observation period, the numbers of the surviving mice in the treated group and in the control group were counted, and the mean survival days of mice in the treated group and in the control group were then calculated. From the mean survival day (C) of the untreated mice of the control group and the mean survival day (T) of the treated mice of the treated group, there were evaluated percentages (%) of the increase in the life-span of the treated mice, as T/C %. For a comparison purpose, 7-O-(2,6-dideoxy-2-fluoro-α-L-talopyranosyl)daunomycinone (abbreviation: FT-DM); 7-O-(2,6-dideoxy-2-fluoro-α-L-talopyranosyl)adriamycinone (abbreviation: FT-ADM); daunomycin and adriamycin were also tested in the same manner as above. Incidentally, the mean survival day of mice of the control group (the untreated group) was amounting to 8 to 9 days, and the mean survival day of mice of the comparative groups having received the administration of adriamycin was varying dependently on the dosage of adriamycin.

For data set [4] the following is noted: clinical treatments, patients; cited from earlier work.

Turning to `COc1cccc2c1C(=O)c1c(O)c3c(c(O)c1C2=O)C[C@@](O)(C(=O)CO)C[C@@H]3O[C@H]1C[C@H](N)[C@H](O)[C@H](C)O1` [Adriamycin, adriamycin], the IC50 – broadly, the midpoint of a concentration-inhibition curve – in the data set with P388 cells turned out to be 0.017 µg/mL (≈ 0.0313 µM); in data set [2], 0.51 µg/mL (≈ 0.938 µM). Also, the “% Increase in life-span (T/C, %)” value with Leukemia L-1210 cells [1] (0.15 mg/kg/day i.p.) was 140%; in the data set on Leukemia L-1210 cells [1] (0.3 mg/kg/day i.p.) it was 132%; in the data set with Leukemia L-1210 cells [1] (0.6 mg/kg/day i.p.), 208%; in the data set with Leukemia L-1210 cells [1] (1.25 mg/kg/day i.p.) it was 330%; with Leukemia L-1210 cells [1] (2.5 mg/kg/day i.p.), 273%; with Leukemia L-1210 cells [1] (5 mg/kg/day i.p.), 177%. Further, the “% Increase in life-span (T/C, %)” value is 140% with Leukemia L-1210 cells [3] (0.15 mg/kg/day i.p.); 132% in the data set with Leukemia L-1210 cells [3] (0.3 mg/kg/day i.p.); 208% with Leukemia L-1210 cells [3] (0.6 mg/kg/day i.p.); 330% in the data set on Leukemia L-1210 cells [3] (1.25 mg/kg/day i.p.); 273% in the data set on Leukemia L-1210 cells [3] (2.5 mg/kg/day i.p.); 177% in the data set on Leukemia L-1210 cells [3] (5 mg/kg/day i.p.). In addition, the “percentages (%) of increase in life-span (T/C, %)” value in the data set on Leukemia L-1210 cells [3] (2.5 mg/kg/day to 5 mg/kg/day, about / approximately at maximum) is given as “approximately 330%”. For the same molecule, the “development of toxicity (in words)” value in the data set on Leukemia L-1210 cells [3] (2.5 to 5 mg/kg/day for daunomycin, adriamycin, 0.3 to 1.25 mg/kg/day for Compound (b), low dosages for formula (I)) is “accompanied by development of toxicity”. Besides, in data set [4], the “serious side-effects (in words)” value is “serious side-effects such as leukocytopenia, alopecia, myocardiopathy and others”.
